Test results from PubChem BioAssay AID248 (DTP/NCI, 2004).
Values joined by “and” are separate entries in the source; they are usually repeats but may differ in a detail not shown here. Equal entries are not always repeated. Inconclusive results and toxic doses are left out.

System: L1210 leukemia ip in BDF1 mice, survival T/C
Test: NCI In Vivo Anticancer Drug Screen. Data for tumor model L1210 Leukemia (intraperitoneal) in B6D2F1 (BDF1) mice
Details: endpoint: mean survival time, higher = longer survival
Summary of the method: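 Each compound was tested against a transplantable tumor grown in mice. The endpoint was survival, with treated animals benchmarked against vehicle controls as a simple ratio.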

[1] = dose: 50.0 mg/kg/injection, schedule: Q01DX009 (ip), vehicle: saline
[2] = dose: 100.0 mg/kg/injection, schedule: Q01DX009 (ip), vehicle: saline
[3] = dose: 100.0 mg/kg/injection, schedule: Q01DX009 (ip), vehicle: saline with Tween-80
[4] = dose: 100.0 mg/kg/injection, schedule: Q04DX002 (ip), vehicle: Klucel (hydroxypropylcellulose) (HPC)
[5] = dose: 200.0 mg/kg/injection, schedule: Q04DX002 (ip), vehicle: Klucel (hydroxypropylcellulose) (HPC)
[6] = dose: 400.0 mg/kg/injection, schedule: Q04DX002 (ip), vehicle: Klucel (hydroxypropylcellulose) (HPC)

O=P(O)(O)C(Cl)(Cl)Cl
T/C [1]: 100 % of control | T/C [2]: 96 % of control | T/C (dose: 100.0 mg/kg/injection, schedule: Q04DX002 (ip), vehicle: saline): 92 % of control | T/C (dose: 200.0 mg/kg/injection, schedule: Q01DX009 (ip), vehicle: saline): 96 % of control | T/C (dose: 200.0 mg/kg/injection, schedule: Q04DX002 (ip), vehicle: saline): 99 % of control

C=CCSc1nc2c(=O)[nH]cnc2n1C1OC(CO)C(O)C1O (centres undefined)
T/C (dose: 100.0 mg/kg/injection, schedule: Q01DX005 (ip), vehicle: saline): 98 % of control | T/C (dose: 200.0 mg/kg/injection, schedule: Q01DX005 (ip), vehicle: saline): 101 % of control

N/N=C(\NN)c1ccccc1
T/C [3]: 92 % of control | T/C (dose: 200.0 mg/kg/injection, schedule: Q01DX009 (ip), vehicle: saline with Tween-80): 91 % of control | T/C (dose: 400.0 mg/kg/injection, schedule: Q01DX009 (ip), vehicle: saline with Tween-80): 86 % of control

CCN(CC)C(=O)Oc1ccc(C(C)=O)cc1
T/C (dose: 100.0 mg/kg/injection, schedule: Q04DX002 (ip), vehicle: saline with Tween-80): 103 % of control | T/C (dose: 200.0 mg/kg/injection, schedule: Q04DX002 (ip), vehicle: saline with Tween-80): 100 % of control | T/C (dose: 400.0 mg/kg/injection, schedule: Q04DX002 (ip), vehicle: saline with Tween-80): 114 % of control

NC(N)=N/N=C/c1cc(Cl)cc(Cl)c1O
T/C (dose: 75.0 mg/kg/injection, schedule: Q01DX001 (ip), vehicle: saline): 101 % of control

OCCOC1CCCCC=C1Br (centres undefined)
T/C (dose: 100.0 mg/kg/injection, schedule: Q04DX003 (ip), vehicle: saline with Tween-80): 113 % of control | T/C (dose: 200.0 mg/kg/injection, schedule: Q04DX003 (ip), vehicle: saline with Tween-80): 110 % of control | T/C (dose: 400.0 mg/kg/injection, schedule: Q04DX003 (ip), vehicle: saline with Tween-80): 102 % of control

O=c1sc(=S)[nH]c2ccccc12
T/C (dose: 100.0 mg/kg/injection, schedule: Q04DX003 (ip), vehicle: Klucel (hydroxypropylcellulose) (HPC)): 88 % of control | T/C (dose: 200.0 mg/kg/injection, schedule: Q04DX003 (ip), vehicle: Klucel (hydroxypropylcellulose) (HPC)): 93 % of control

COCCOC(=O)Cc1cccc2ccccc12
T/C (dose: 222.0 mg/kg/injection, schedule: Q01DX Z (ip), vehicle: saline): 90 % of control | T/C (dose: 333.0 mg/kg/injection, schedule: Q01DX Z (ip), vehicle: saline): 100 % of control | T/C (dose: 500.0 mg/kg/injection, schedule: Q01DX Z (ip), vehicle: saline): 110 % of control

Cc1cc(C)c(N2C(=O)C=CC2=O)c(C)c1
T/C (dose: 0.39 mg/kg/injection, schedule: Q01DX009 (ip), vehicle: saline with Tween-80): 94 % of control | T/C (dose: 0.78 mg/kg/injection, schedule: Q01DX009 (ip), vehicle: saline with Tween-80): 94 % of control | T/C (dose: 1.56 mg/kg/injection, schedule: Q01DX009 (ip), vehicle: saline with Tween-80): 95 % of control and 108 % of control | T/C (dose: 6.25 mg/kg/injection, schedule: Q01DX009 (ip), vehicle: saline with Tween-80): 88 % of control

O=C(Nc1ccccc1C(F)(F)F)OCCOc1ccccc1
T/C (dose: 100.0 mg/kg/injection, schedule: Q01DX009 (ip), vehicle: gum acacia): 92 % of control | T/C (dose: 200.0 mg/kg/injection, schedule: Q01DX009 (ip), vehicle: gum acacia): 88 % of control | T/C (dose: 400.0 mg/kg/injection, schedule: Q01DX009 (ip), vehicle: gum acacia): 93 % of control

O=C1c2ccccc2Cc2ccccc21
T/C (dose: 100.0 mg/kg/injection, schedule: Q01DX001 (ip), vehicle: saline): 97 % of control | T/C (dose: 100.0 mg/kg/injection, schedule: Q04DX002 (ip), vehicle: gum acacia): 103 % of control | T/C (dose: 200.0 mg/kg/injection, schedule: Q01DX001 (ip), vehicle: saline): 95 % of control | T/C (dose: 200.0 mg/kg/injection, schedule: Q04DX002 (ip), vehicle: gum acacia): 100 % of control | T/C (dose: 400.0 mg/kg/injection, schedule: Q01DX001 (ip), vehicle: saline): 106 % of control | T/C (dose: 400.0 mg/kg/injection, schedule: Q04DX002 (ip), vehicle: gum acacia): 106 % of control

CCc1c(Cl)nc(N)nc1Cl
T/C (dose: 100.0 mg/kg/injection, schedule: Q01DX Z (ip), vehicle: methylcellulose (MC)): 95 % of control | T/C (dose: 200.0 mg/kg/injection, schedule: Q01DX Z (ip), vehicle: methylcellulose (MC)): 89 % of control

COc1ccc(OC)c(-n2cccc2/C=N/NC(N)=O)c1
T/C [4]: 97 % of control | T/C [5]: 108 % of control | T/C [6]: 93 % of control

Cc1ccc(S(=O)(=O)OCCN2C(=O)NC(c3ccccc3)(c3ccccc3)C2=O)cc1
T/C (dose: 3.1 mg/kg/injection, schedule: Q01DX009 (ip), vehicle: saline): 104 % of control | T/C (dose: 6.25 mg/kg/injection, schedule: Q01DX009 (ip), vehicle: saline): 100 % of control | T/C (dose: 12.5 mg/kg/injection, schedule: Q01DX009 (ip), vehicle: saline): 104 % of control | T/C (dose: 25.0 mg/kg/injection, schedule: Q01DX009 (ip), vehicle: saline): 98 % of control | T/C [1]: 100 % of control | T/C [2]: 102 % of control | T/C (dose: 150.0 mg/kg/injection, schedule: Q04DX003 (ip), vehicle: saline with Tween-80): 109 % of control | T/C (dose: 225.0 mg/kg/injection, schedule: Q04DX003 (ip), vehicle: saline with Tween-80): 109 % of control | T/C (dose: 335.0 mg/kg/injection, schedule: Q04DX003 (ip), vehicle: saline with Tween-80): 98 % of control

Cc1cc(C)c(-n2c(C)nc3ccccc3c2=O)c([N+](=O)[O-])c1
T/C (dose: 12.5 mg/kg/injection, schedule: Q01DX009 (ip), vehicle: Klucel (hydroxypropylcellulose) (HPC)): 96 % of control | T/C (dose: 25.0 mg/kg/injection, schedule: Q01DX009 (ip), vehicle: Klucel (hydroxypropylcellulose) (HPC)): 104 % of control | T/C (dose: 50.0 mg/kg/injection, schedule: Q01DX009 (ip), vehicle: Klucel (hydroxypropylcellulose) (HPC)): 89 % of control | T/C (dose: 100.0 mg/kg/injection, schedule: Q01DX009 (ip), vehicle: Klucel (hydroxypropylcellulose) (HPC)): 109 % of control

Nc1nc(N)nc(CC(=O)O)n1
T/C (dose: 50.0 mg/kg/injection, schedule: Q01DX001 (ip), vehicle: carboxymethylcellulose (CMC)): 95 % of control | T/C (dose: 100.0 mg/kg/injection, schedule: Q01DX001 (ip), vehicle: carboxymethylcellulose (CMC)): 90 % of control | T/C (dose: 200.0 mg/kg/injection, schedule: Q01DX001 (ip), vehicle: carboxymethylcellulose (CMC)): 95 % of control | T/C (dose: 400.0 mg/kg/injection, schedule: Q01DX001 (ip), vehicle: carboxymethylcellulose (CMC)): 93 % of control

CCCCCCCCCC[n+]1cccc(C(N)=O)c1
T/C (dose: 5.0 mg/kg/injection, schedule: Q04DX003 (ip), vehicle: saline): 93 % of control | T/C (dose: 10.0 mg/kg/injection, schedule: Q04DX003 (ip), vehicle: saline): 96 % of control | T/C (dose: 20.0 mg/kg/injection, schedule: Q04DX003 (ip), vehicle: saline): 96 % of control

Nc1nc(N)c2c(Cl)c(CNc3ccc(Cl)c(Cl)c3)ccc2n1
T/C (dose: 6.25 mg/kg/injection, schedule: Q01DX009 (ip), vehicle: water): 124 % of control | T/C (dose: 12.5 mg/kg/injection, schedule: Q01DX009 (ip), vehicle: saline with Tween-80): 158 % of control | T/C (dose: 50.0 mg/kg/injection, schedule: Q01DX009 (ip), vehicle: saline with Tween-80): 119 % of control | T/C (dose: 50.0 mg/kg/injection, schedule: Q01DX009 (ip), vehicle: water): 93 % of control and 110 % of control | T/C (dose: 50.0 mg/kg/injection, schedule: Q04DX003 (ip), vehicle: water): 107 % of control | T/C [3]: 91 % of control | T/C (dose: 100.0 mg/kg/injection, schedule: Q01DX009 (ip), vehicle: water): 86 % of control | T/C (dose: 100.0 mg/kg/injection, schedule: Q04DX003 (ip), vehicle: water): 124 % of control | T/C (dose: 400.0 mg/kg/injection, schedule: Q04DX003 (ip), vehicle: water): 113 % of control | T/C (dose: 600.0 mg/kg/injection, schedule: Q04DX003 (ip), vehicle: water): 97 % of control

Cc1ccc(S(=O)(=O)OCC2C(COS(=O)(=O)c3ccc(C)cc3)C3C4C5C2C2C3C4C52)cc1 (centres undefined)
T/C [4]: 98 % of control | T/C [5]: 90 % of control | T/C [6]: 94 % of control

O=C(NCCBr)c1ccc(CCl)cc1
T/C (dose: 75.0 mg/kg/injection, schedule: Q04DX003 (ip), vehicle: Klucel (hydroxypropylcellulose) (HPC)): 102 % of control | T/C (dose: 100.0 mg/kg/injection, schedule: Q01DX001 (ip), vehicle: Klucel (hydroxypropylcellulose) (HPC)): 104 % of control | T/C (dose: 150.0 mg/kg/injection, schedule: Q04DX003 (ip), vehicle: Klucel (hydroxypropylcellulose) (HPC)): 96 % of control | T/C (dose: 200.0 mg/kg/injection, schedule: Q01DX001 (ip), vehicle: Klucel (hydroxypropylcellulose) (HPC)): 95 % of control | T/C (dose: 300.0 mg/kg/injection, schedule: Q04DX003 (ip), vehicle: Klucel (hydroxypropylcellulose) (HPC)): 97 % of control | T/C (dose: 400.0 mg/kg/injection, schedule: Q01DX001 (ip), vehicle: Klucel (hydroxypropylcellulose) (HPC)): 103 % of control
